Consider 45 compounds from ChEMBL document CHEMBL1201862, “PubChem BioAssay data set” (2004).

The target in experiment [1] is T1, Heat shock factor protein 1 (Mus musculus, UniProt P38532).
T1 sequence (P38532 whole entry): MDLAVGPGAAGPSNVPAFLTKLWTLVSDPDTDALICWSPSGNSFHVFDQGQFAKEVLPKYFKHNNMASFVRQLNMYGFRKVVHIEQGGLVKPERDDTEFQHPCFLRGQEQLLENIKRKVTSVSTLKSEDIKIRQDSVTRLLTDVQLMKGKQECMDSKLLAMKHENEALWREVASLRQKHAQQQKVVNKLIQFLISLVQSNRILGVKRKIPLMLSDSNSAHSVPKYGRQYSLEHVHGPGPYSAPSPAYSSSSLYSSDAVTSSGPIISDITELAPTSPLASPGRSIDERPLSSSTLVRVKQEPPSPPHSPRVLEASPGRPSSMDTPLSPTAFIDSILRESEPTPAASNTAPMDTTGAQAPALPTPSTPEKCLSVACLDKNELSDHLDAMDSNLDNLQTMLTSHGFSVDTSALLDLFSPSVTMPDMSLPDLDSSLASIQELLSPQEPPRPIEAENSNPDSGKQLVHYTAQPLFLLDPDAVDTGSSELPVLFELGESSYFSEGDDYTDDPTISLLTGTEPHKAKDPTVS
Kind of experiment: decrease of HSF1-responsive luciferase luminescence – cell-based, NIH3T3, dose retest, confirmation (AID 2382).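 Also: NIH3T3 fibroblasts with HSF1-driven luciferase reporter stressed by proteasome inhibitor MG132; luminescence from HSF1-driven luciferase expression after 8 hours of MG132 stress.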 In kind it is functional.

Experiment [2] concerns the target T1, Heat shock factor protein 1. As to the kind of experiment: enhancement of HSF1-driven luciferase signal – cell-based, NIH3T3, luminescence, dose retest, confirmation (AID 435004).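 Also: stress induced by proteasome inhibitor MG132 added 30 min after compound; luciferase reporter driven by HSF1 response element in NIH3T3 cells; actives raise luminescence as potentiators of the MG132 stress response.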 In kind it is functional.
Experiment [3] concerns the target T2, Streptokinase A (Streptococcus pyogenes serotype M1, UniProt P10520).
T2 sequence (P10520 whole entry): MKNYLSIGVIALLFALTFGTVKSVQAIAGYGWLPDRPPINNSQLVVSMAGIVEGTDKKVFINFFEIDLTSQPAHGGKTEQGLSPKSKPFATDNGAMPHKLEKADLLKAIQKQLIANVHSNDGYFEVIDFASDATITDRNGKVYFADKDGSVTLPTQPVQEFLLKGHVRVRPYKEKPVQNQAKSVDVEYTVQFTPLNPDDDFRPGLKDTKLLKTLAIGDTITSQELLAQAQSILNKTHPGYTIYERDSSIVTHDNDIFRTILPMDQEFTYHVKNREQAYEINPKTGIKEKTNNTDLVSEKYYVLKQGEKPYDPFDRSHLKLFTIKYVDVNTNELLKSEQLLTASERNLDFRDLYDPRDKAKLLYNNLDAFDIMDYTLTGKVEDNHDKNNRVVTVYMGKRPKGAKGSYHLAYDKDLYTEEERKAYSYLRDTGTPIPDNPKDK
Kind of experiment: viability-normalized secreted streptokinase activity reduction – plasminogen activation absorbance, OD405, dose response (AID 1914).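 Also: secreted streptokinase activity via plasminogen activation per viability signal from cell pellet.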 In kind it is functional, Streptococcus pyogenes M1 GAS.

The subject of experiment [4] is Streptococcus sp. 'group A'. As to the kind of experiment: Streptococcus pyogenes SK(-)GAS viability under kanamycin – luminescence, BacTiterGlo, confirmation, counter-screen for streptokinase expression inhibitor project, dose response (AID 1900). In kind it is functional, organism-based.
Experiment [5] can be described thus: Luminescence Cell-Based Dose Response HTS to Identify Inhibitors of 5'UTR Stem-Loop Driven Prion Protein mRNA Translation in H4 Neuroglioblastoma Cells. [Related pubchem assays: 1827 (Project Summary), 1813 (Primary HTS)]. The format is functional.
Experiment [6] can be described thus: luciferase reporter signal suppression in cells – H4 neuroglioma cells, luminescence, dose response (AID 1990). The format is functional, cell-based. In general terms: A reporter such as luciferase makes a cellular process visible.
Experiment [7] is described as follows: alpha-synuclein stem-loop luciferase translation blockers – H4 neuroglioma cells, luminescence, confirmation (AID 1988). The format is functional, cell-based.
The nature of experiment [8]: Luminescence Cell-Based Dose Retest to Confirm Inhibitors of Cancer Stem Cells. [Related pubchem assays (depositor defined):AID2717, AID2721]. In kind it is functional. Conditions: Homo sapiens.
Experiment [9] deals with Streptococcus. As to the kind of experiment: GAS UMAA2166 growth inhibition – luminescence, BacTiterGlo, counter-screen for streptokinase expression inhibitor project, dose response (AID 1915).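 Also: potency for reduction of bacterial viability or growth.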 In kind it is functional, organism-based.
Experiment [10] in a line: viability of uninfected HEp-2 cells – cell-based, HTS, cytotoxicity control for RSV inhibitor project, dose response (AID 2410). In kind it is functional. Conditions: human respiratory syncytial virus.
Experiment [11] has as its system H9c2. As to the kind of experiment: cells. The format is functional, cell-based. Conditions: Rattus norvegicus, H9c2, Myocardium.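 Also: confirmatory concentration-response retest of ultra-high-throughput screening hits for modulation of myocardial damage; cell death induced by hydrogen peroxide oxidative stress; compound pretreatment for 60 min then peroxide exposure for 2 h; potency is for protecting the cells against peroxide damage rather than for killing them.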
Experiment [12] has as its target Cytochrome P450 2C9 (Homo sapiens, UniProt P11712).
Experiment [13] deals with Cytochrome P450 2C19 (Homo sapiens, UniProt P33261). As to the kind of experiment: Cytochrome panel assay with activity outcomes. Panel member name: p450-cyp2c19 Compounds with AC50 equal or less than 10 uM are considered active. The format is functional. Conditions: read-out: AC50.
A short description of experiment [14]: Luminescence Cell-Based Dose Response HTS to Identify Activators of Luciferase Translation or Activity in H4 […] Cells. [Related pubchem assays: 1829 (Project Summary), 1814 (Primary HTS)]. In kind it is functional.
Experiment [15] can be described thus: Luminescence Cell-Based Dose Confirmation HTS to Identify Activators of 5'UTR Stem-Loop Driven Alpha-Synuclein mRNA Translation in H4 Neuroglioblastoma Cells. [Related pubchem assays: 1829 (Project Summary), 1814 (Primary HTS)]. The format is functional.
Experiment [16] concerns H4. As to the kind of experiment: Luminescence Cell-Based Dose Response HTS to Identify Activators of 5'UTR Stem-Loop Driven Prion Protein mRNA Translation in H4 Neuroglioblastoma Cells. [Related pubchem assays: 1829 (Project Summary), 1814 (Primary HTS)]. In kind it is functional. Conditions: Homo sapiens.

Calls of active or inactive are those of the source.

Cytochrome P450 2C9, sequence (P11712 whole entry): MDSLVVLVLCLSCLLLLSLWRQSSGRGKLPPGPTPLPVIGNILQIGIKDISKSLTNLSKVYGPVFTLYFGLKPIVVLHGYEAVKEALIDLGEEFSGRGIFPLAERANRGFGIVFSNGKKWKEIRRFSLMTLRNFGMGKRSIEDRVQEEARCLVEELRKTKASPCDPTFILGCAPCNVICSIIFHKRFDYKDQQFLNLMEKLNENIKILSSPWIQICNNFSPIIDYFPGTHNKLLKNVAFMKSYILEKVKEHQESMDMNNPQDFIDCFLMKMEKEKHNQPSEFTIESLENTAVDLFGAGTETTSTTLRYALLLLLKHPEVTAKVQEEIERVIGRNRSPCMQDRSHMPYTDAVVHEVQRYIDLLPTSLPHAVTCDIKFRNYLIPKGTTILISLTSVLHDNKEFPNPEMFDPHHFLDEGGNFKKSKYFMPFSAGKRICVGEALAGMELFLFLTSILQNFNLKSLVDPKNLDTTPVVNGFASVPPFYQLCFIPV
Cytochrome P450 2C19, sequence (P33261 whole entry): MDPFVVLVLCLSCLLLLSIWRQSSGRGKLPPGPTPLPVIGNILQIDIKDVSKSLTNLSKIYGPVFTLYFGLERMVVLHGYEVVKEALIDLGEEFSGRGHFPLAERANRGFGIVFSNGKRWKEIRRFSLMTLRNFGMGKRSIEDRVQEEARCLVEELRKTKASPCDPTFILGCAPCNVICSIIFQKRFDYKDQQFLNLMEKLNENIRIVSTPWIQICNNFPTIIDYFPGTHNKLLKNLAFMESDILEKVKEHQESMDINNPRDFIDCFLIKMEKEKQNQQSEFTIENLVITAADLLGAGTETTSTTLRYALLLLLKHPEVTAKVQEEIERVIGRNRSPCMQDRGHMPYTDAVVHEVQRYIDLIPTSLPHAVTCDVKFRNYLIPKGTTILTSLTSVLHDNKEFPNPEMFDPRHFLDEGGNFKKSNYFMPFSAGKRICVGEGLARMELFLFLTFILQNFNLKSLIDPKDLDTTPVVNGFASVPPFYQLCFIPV

Regarding `COc1cc(NC(=O)c2cc(C)nc3ccccc23)cc(OC)c1`, in experiment [1], the EC50 (in general, the concentration at which the effect is half-maximal) is > 195 µM (not active). For the compound `Cc1ccc(NC(=O)c2ccccc2O)cc1`, the EC50 in experiment [2] was 35.5 µM (active). In the case of `COc1ccc(CCCC(=O)N/N=C/c2cccc(OC)c2O)cc1C`, the EC50 in experiment [3] was > 150 µM (not active); in experiment [4], 2.9 µM (active); in experiment [5] it was 48.6 µM (active); in [6], 11.1 µM (active); in [7], 10.6 µM (active); in experiment [9], 3.61 µM (active). Moreover, the AC50 – broadly, the midpoint of the concentration-response curve, whichever way the signal moves – in experiment [8] is 0.936 µM (active). As to `CC(=O)Nc1ccc(Nc2nc3c(S(=O)(=O)c4ccc(C)c(C)c4)nnn3c3ccccc23)cc1`, the EC50 in experiment [2] was 112 µM (active). For the compound `COC(=O)c1c(C)[nH]c(C)c1-c1cccc([N+](=O)[O-])c1`, in [1], the concentration giving a half-maximal response (EC50) is on record as > 195 µM (not active).

As for `CCn1c(SCC(=O)Nc2oc(-c3ccccc3)c(-c3ccccc3)c2C#N)nnc1-c1ccco1`, the EC50 in experiment [3] is 58.8 µM (active); in experiment [4], 10.7 µM (active); in experiment [9], > 150 µM (not active). Take `Cc1nnc(SC(C(=O)Nc2cc(Cl)cc(Cl)c2)c2ccccc2)[nH]c1=O` (centres undefined): the EC50 in experiment [3] is reported as > 150 µM (not active). Regarding `COC(=O)c1cc(NC(=O)c2cc(-c3ccc(OC)cc3)oc2C(F)(F)F)ccc1N1CCOCC1`, the CC50 (commonly the concentration that lowers cell viability or growth by half) in [10] is 13.4 µM (active). As for `CN(C)C=O.COc1cc(/C=C/c2nc3ccccc3c(=O)n2-c2ccc(O)cc2)ccc1O`, the IC50 – broadly, the midpoint of a concentration-inhibition curve – in experiment [11] was > 79 µM (inactive). `O=C[C@H](O)[C@@H](O)[C@H](O)CO` [XYLOSE]: the EC50 in experiment [1] is reported as > 195 µM (not active).

In the case of `O=C(COC(=O)Cc1nnc(O)c2ccccc12)NNC(=O)c1ccc(Cl)cc1`, the IC50 in experiment [11] is > 79 µM (inactive). `Cc1cccc(C)c1OCC(=O)N/N=C/C=C/c1ccco1`: the EC50 in experiment [2] is > 260 µM (inactive).

Regarding `CCOC(=O)Cc1cnc(NC(=O)NC(C(=O)OCC)(c2ccccc2)C(F)(F)F)s1` (centres undefined), the EC50 in [2] was > 260 µM (inactive). `COc1ccc(-c2cc(C(=O)NNC(=O)c3csc(N4CCOCC4)n3)c3ccccc3n2)cc1`: in experiment [11], the IC50 is > 79 µM (inactive). For `CCCCn1nc(NC(=O)c2cccs2)c2cc3cc(OC)ccc3nc21`, in experiment [11], the IC50 was > 79 µM (inactive). On to `CC1Cc2ccccc2N1C(=O)c1cc2c(=O)n3ccccc3nc2n1C` (centres undefined), for which the IC50 in [11] was 59.3 µM (inactive). For the same compound, the half-maximal activity concentration (AC50) in experiment [12] was 14.1 µM (inconclusive); in [13], 7.08 µM (inconclusive). Turning to `CCCN=C(S)NC1CC2CCCC(C1)N2Cc1ccc(F)cc1` (centres undefined), the EC50 in experiment [1] is on record as > 195 µM (not active). Consider `CC(Cc1ccccc1)C(=O)Nc1ccccc1` (centres undefined), for which the EC50 in [1] was > 195 µM (not active).

In the case of `COCCCn1c(Cc2csc(Nc3ccc(F)cc3)n2)nnc1SCC(N)=O`, the EC50 in experiment [2] was > 260 µM (inactive). Take `O=C(Nc1ccc(Nc2ccccc2)cc1)c1ccc(Cl)c([N+](=O)[O-])c1`: the cytotoxic concentration (CC50) in experiment [10] was 18.7 µM (active). On to `Cc1nc(NC(=O)/C=C/c2ccc(Cl)cc2Cl)sc1C(=O)N(C)C`, for which, in [1], the EC50 is > 195 µM (not active). The same measure, in the same setting: with `CCN(CC)S(=O)(=O)c1cc(C(=O)Nc2cc(C)on2)ccc1Cl` the figure was > 195 µM (not active). As for `Cc1ccc(C2C(C#N)=C(N)SC(N)=C2C#N)c(C)c1`, in experiment [2], the EC50 is > 260 µM (inactive).

`COC(=O)c1cc2ccc(OC)cc2c2cc(OC)c(OC)cc12`: the IC50 in experiment [11] is > 79 µM (inactive). With `O=C(CN1CCN(c2ccc(F)cc2)CC1)Nc1cccc(C(F)(F)F)c1`, the CC50 in experiment [10] is 29.2 µM (active). As for `Clc1c(-c2nnc3n2CCC3)sc2ccccc12`, in experiment [10], the CC50 was 30.9 µM (active).

As to `COc1ccc(-c2cc(C(=O)N(C)Cc3ccccc3F)c3ccccc3n2)cc1OC`, the IC50 in experiment [11] is 30.2 µM (inactive). For `COc1cc(/C=N/NC(=O)c2cccnc2)ccc1OS(=O)(=O)c1cc(C)ccc1C`, the IC50 in experiment [11] was > 79 µM (inactive).

In the case of `O=C1CCCN1CCC1CCN(C(=O)Nc2ccccc2)CC1`, in experiment [1], the EC50 is > 195 µM (not active). Regarding `Cc1ccc(S(=O)(=O)NCCC(=O)N2CCN(S(=O)(=O)c3ccccc3)CC2)cc1C`, the EC50 in experiment [1] was > 195 µM (not active). Regarding `CCN(CC)c1ccc([N+](=O)[O-])cc1C(=O)N1CCOCC1`, the EC50 in experiment [2] was > 260 µM (inactive). With `CC(C)c1ccc(NC(=O)CNC(=O)Cn2cnc3ccccc3c2=O)cc1`, the EC50 in experiment [1] is 60.8 µM (active).

Turning to `Cc1cc2c(cc1S(=O)(=O)N1CCc3ccccc31)NC(=O)CO2`, in [10], the CC50 is 13.8 µM (active). `CCOC(=O)CN1CCC(c2cc(-c3ccc(Cl)cc3)[nH]n2)CC1`: the EC50 in [2] is > 260 µM (inactive).

Consider `Cc1ccc(Cl)cc1N1CCN(C2CCCCC2NS(=O)(=O)c2ccccc2)CC1` (centres undefined), for which the EC50 in experiment [2] was > 260 µM (inactive). For the compound `O=C(CCc1nc(O)c2ccccc2n1)NCC(=O)Nc1ccc(F)c(F)c1`, the IC50 in [11] was 25.2 µM (active). As for `Oc1ccc(Br)cc1/C=N/NC(=S)NCCc1ccccc1`, the results for the EC50 in experiment [3], in [4] and in experiment [9] were > 150 µM (not active), 1.58 µM (active) and 6.21 µM (active), respectively. Further, the AC50 in [8] is 4.29 µM (active).

Turning to `COc1ccccc1N1CCN(C(=O)c2sc3nc(C)nc(N4CCN(c5ccccn5)CC4)c3c2C)CC1`, the CC50 in [10] is 20 µM (active). Consider `O=C1N=C(Nc2ccc(Cl)cc2)SC1Cc1cc(Cl)ccc1Cl` (centres undefined), for which the EC50 in [3] was > 150 µM (not active); in experiment [4], 2.64 µM (active); in [9], 7.38 µM (active). `O=S(=O)(c1ccccc1)N1CCCC(c2nc(O)c3nnn(Cc4cccc(Cl)c4)c3n2)C1` (centres undefined): in experiment [10], the CC50 was 13.1 µM (active). On the same count and under the same terms, with `CCCN1C(=O)/C(=C/c2c[nH]nc2-c2ccccc2)SC1=S` the figure was 20.7 µM (active).

As for `O=C(NN1C(=O)C2C(C1=O)C1C=CC2C12CC2)c1ccc(Cl)cc1` (centres undefined), the EC50 in [2] is > 260 µM (inactive).

For the compound `O=[N+]([O-])c1ccc(N2CCc3ccccc3C2)nc1`, in experiment [10], the CC50 was 19.6 µM (active). In the case of `CCN(CC)C(=O)CCc1nnc(Cc2cccc(C(F)(F)F)c2)o1`, the EC50 in experiment [14] was 14.5 µM (active); in experiment [15], 12.5 µM (active); in experiment [16] it was > 120 µM (not active). Turning to `Cc1ccc(NC(=O)C(OC(=O)c2ccc(NC(N)=O)cc2)c2ccccc2)cc1Cl` (centres undefined), the EC50 in [3] is > 150 µM (not active); in [4], 9.28 µM (active); in [9] it was 9.31 µM (active).
